US20040043959A1, “Combination therapies for treating methylthioadenosine phosphorylase deficient cells” (priority 2002, published 2004)

Molecular target: T1, Human MTAP (Homo sapiens, UniProt Q13126)
T1 construct: six-histidine tag (His6) (N); made in house; host or cells: E. coli BL21 DE3
T1 sequence (Q13126 1-283): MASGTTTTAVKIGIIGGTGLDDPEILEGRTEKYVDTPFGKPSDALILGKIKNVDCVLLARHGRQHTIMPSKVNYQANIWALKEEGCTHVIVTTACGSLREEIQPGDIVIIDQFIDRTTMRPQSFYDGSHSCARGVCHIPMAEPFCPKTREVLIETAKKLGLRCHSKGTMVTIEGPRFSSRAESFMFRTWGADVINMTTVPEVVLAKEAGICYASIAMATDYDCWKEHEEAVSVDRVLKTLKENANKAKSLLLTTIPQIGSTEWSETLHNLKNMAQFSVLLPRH
Assay: MTAP substrate assay, coupled spectrophotometric (adenine, xanthine oxidase)
Type: biochemical
Details: 2 nM MTAP; for activity at 50 µM: 10 min, compound 50 uM, relative to MTA at 50 uM, read-out: MT-A—50: initial velocity as a percentage of the initial velocity with MTA as substrate; for MT-A—10: initial velocity as a percentage of the initial velocity with MTA as substrate: compound 10 uM, relative to MTA at 10 uM
Outline: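 Detection was xanthine oxidase-coupled (0.8 units/ml), reading adenine-derived absorbance at 305 nm over 10 min in potassium phosphate/DTT buffer at 37° C, with N-His6 enzyme purified from E. coli.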

activity at 50 µM [%]	MT-A—10: initial velocity as a percentage of the initial velocity with MTA as substrate [%]	Structure (SMILES)
7	6	CC1OCCC1SC[C@H]1O[C@@H](n2cnc3c(N)ncnc32)[C@H](O)[C@@H]1O (stereo partly drawn) [2(G)(62), (2R, 3R, 4S, 5S)-2-(6-amino-9H-purin-9-yl)-5-{[(2-methyltetra-hydrofuran-3-yl)thio]methyl}tetrahydrofuran-3,4-diol]
5	5	Cn1c(CO)cnc1SC[C@H]1O[C@@H](n2cnc3c(N)ncnc32)[C@H](O)[C@@H]1O [2(G)(63), (2R, 3R, 4S, 5S)-2-(6-amino-9H-purin-9-yl)-5-({[5-(hydroxymethyl)-1-methyl-1H-imidazol-2-yl]thio}methyl)tetra-hydrofuran-3,4-diol]
48	48	Nc1ncnc2c1ncn2[C@@H]1O[C@H](CSc2nc(O)c3cc[nH]c3n2)[C@@H](O)[C@H]1O [2(G)(64), (2R, 3R, 4S, 5S)-2-(6-amino-9H-purin-9-yl)-5-{[(4-hydroxy-7H-pyrrolo[2,3-d]pyrimidin-2-yl)thio]methyl}tetra-hydrofuran-3,4-diol]
4	5	CC(C)n1c(O)nnc1SC[C@H]1O[C@@H](n2cnc3c(N)ncnc32)[C@H](O)[C@@H]1O [2(G)(65), (2R, 3R, 4S, 5S)-2-(6-amino-9H-purin-9-yl)-5-{[(5-hydroxy-4-isopropyl-4H-1,2,4-triazol-3-yl)thio]methyl}tetrahydrofuran-3,4-diol]
6	6	CN(C)Cc1nnc(SC[C@H]2O[C@@H](n3cnc4c(N)ncnc43)[C@H](O)[C@@H]2O)n1C [2(G)(66), (2R, 3R, 4S, 5S)-2-(6-amino-9H-purin-9-yl)-5-[({5-[(dimethylamino)-methyl]-4-methyl-4H-1,2,4-triazol-3-yl}thio)methyl]tetrahydro-furan-3,4-diol]
47	45	Cc1nnc(SC[C@H]2O[C@@H](n3cnc4c(N)ncnc43)[C@H](O)[C@@H]2O)n1C [2(G)(67), (2R, 3R, 4S, 5S)-2-(6-amino-9H-purin-9-yl)-5-{[(4,5-dimethyl-4H-1,2,4-triazol-3-yl)thio]methyl}tetra-hydrofuran-3,4-diol]
45	42	CCC(C)SC[C@H]1O[C@@H](n2cnc3c(N)ncnc32)[C@H](O)[C@@H]1O (stereo partly drawn) [2(G)(68), (2R, 3R, 4S, 5S)-2-(6-amino-9H-purin-9-yl)-5-[(sec-butylthio)methyl]tetra-hydrofuran-3,4-diol]
40	31	Nc1ncnc2c1ncn2[C@@H]1O[C@H](CSc2cnccn2)[C@@H](O)[C@H]1O [2(G)(69), (2R, 3R, 4S, 5S)-2-(6-amino-9H-purin-9-yl)-5-[(pyrazin-2-ylthio)methyl]tetrahydro-furan-3,4-diol]
3	6	Nc1ncnc2c1ncn2[C@@H]1O[C@H](CSc2ccccc2Br)[C@@H](O)[C@H]1O [2(G)(70), (2R, 3R, 4S, 5S)-2-(6-amino-9H-purin-9-yl)-5-{[(2-bromophenyl)-thio]methyl}tetrahydro-furan-3,4-diol]
73	77	CCC(C)CSC[C@H]1O[C@@H](n2cnc3c(N)ncnc32)[C@H](O)[C@@H]1O (stereo partly drawn) [2(G)(71), (2R, 3R, 4S, 5S)-2-(6-amino-9H-purin-9-yl)-5-{[(2-methylbutyl)-thio]methyl}tetrahydro-furan-3,4-diol]
38	33	Nc1cccc(SC[C@H]2O[C@@H](n3cnc4c(N)ncnc43)[C@H](O)[C@@H]2O)c1 [2(G)(72), (2R, 3R, 4S, 5S)-2-(6-amino-9H-purin-9-yl)-5-{[(3-aminophenyl)thio]-methyl}tetrahydrofuran-3,4-diol]
21	30	Nc1ncnc2c1ncn2[C@@H]1O[C@H](CSCc2ccccc2Cl)[C@@H](O)[C@H]1O [2(G)(73), (2R, 3R, 4S, 5S)-2-(6-amino-9H-purin-9-yl)-5-{[(2-chlorobenzyl)thio]-methyl}tetrahydrofuran-3,4-diol]
22	23	Nc1ncnc2c1ncn2[C@@H]1O[C@H](CSCc2cccc(C(F)(F)F)c2)[C@@H](O)[C@H]1O [2(G)(74)]
39	32	Nc1ncnc2c1ncn2[C@@H]1O[C@H](CSCCCO)[C@@H](O)[C@H]1O [2(G)(75)]
11	14	Nc1ncnc2c1ncn2[C@@H]1O[C@H](CSCc2ccc(Cl)cc2Cl)[C@@H](O)[C@H]1O [2(G)(76), (2R, 3R, 4S, 5S)-2-(6-amino-9H-purin-9-yl)-5-{[(2,4-dichlorobenzyl)-thio]methyl}tetrahydro-furan-3,4-diol]
6	3	CCCC(CCO)SC[C@H]1O[C@@H](n2cnc3c(N)ncnc32)[C@H](O)[C@@H]1O (some centres unmarked) [2(G)(77)]
6	3	Nc1ncnc2c1ncn2[C@@H]1O[C@H](CSCCCCCCO)[C@@H](O)[C@H]1O [2(G)(78)]
45	38	Cc1csc(SC[C@H]2O[C@@H](n3cnc4c(N)ncnc43)[C@H](O)[C@@H]2O)n1 [2(G)(79), (2R, 3R, 4S, 5S)-2-(6-amino-9H-purin-9-yl)-5-{[(4-methyl-1,3-thiozol-2-yl)thio]methyl}tetrahydrofuran-3,4-diol]
15	13	CCc1ccc(SC[C@H]2O[C@@H](n3cnc4c(N)ncnc43)[C@H](O)[C@@H]2O)cc1 [2(G)(80)]
18	18	Nc1ncnc2c1ncn2[C@@H]1O[C@H](CSCCc2c[nH]c3ccccc23)[C@@H](O)[C@H]1O [2(G)(81), (2R, 3R, 4S, 5S)-2-(6-amino-9H-purin-9-yl)-5-({[2-(1H-indol-3-yl)ethyl]thio}methyl)-tetrahydrofuran-3,4-diol]
1	1	Nc1ncnc2c1ncn2[C@@H]1O[C@H](CSc2ccccc2C(F)(F)F)[C@@H](O)[C@H]1O [2(G)(82), (2R, 3R, 4S, 5S)-2-(6-amino-9H-purin-9-yl)-5-({[2-(trifluoromethyl)-phenyl]thio}methyl)tetra-hydrofuran-3,4-diol]
8	5	COc1ccc(CSC[C@H]2O[C@@H](n3cnc4c(N)ncnc43)[C@H](O)[C@@H]2O)c(OC)c1 [2(G)(83), (2R, 3R, 4S, 5S)-2-(6-amino-9H-purin-9-yl)-5-{[(2,4-dimethoxybenzyl)-thio]methyl}tetrahydro-furan-3,4-diol]
5	4	Cc1cc(N)c(SC[C@H]2O[C@@H](n3cnc4c(N)ncnc43)[C@H](O)[C@@H]2O)cc1C [2(G)(84)]
2	10	Nc1ncnc2c1ncn2[C@@H]1O[C@H](CSc2nc3cccnc3s2)[C@@H](O)[C@H]1O [2(G)(85), (2R, 3R, 4S, 5S)-2-(6-amino-9H-purin-9-yl)-5-[([1,3]thiozolo[5,4-b]pyridin-2-ylthio)-methyl]tetrahydrofuran-3,4-diol]
33	31	COc1ccc2sc(SC[C@H]3O[C@@H](n4cnc5c(N)ncnc54)[C@H](O)[C@@H]3O)nc2c1 [2(G)(86), (2R, 3R, 4S, 5S)-2-(6-amino-9H-purin-9-yl)-5-{[(5-methoxy-1,3-benzothiozol-2-yl)thio]-methyl}tetrahydro-furan-3,4-diol]
33	36	Nc1ncnc2c1ncn2[C@@H]1O[C@H](CSc2cccs2)[C@@H](O)[C@H]1O [2(G)(87), (2R, 3R, 4S, 5S)-2-(6-amino-9H-purin-9-yl)-5-[(2-thienylthio)methyl]-tetrahydrofuran-3,4-diol]
33	25	CCOC(=O)CSC[C@H]1O[C@@H](n2cnc3c(N)ncnc32)[C@H](O)[C@@H]1O [2(G)(88), ethyl ({[(2S, 3S, 4R, 5R)-5-(6-amino-9H-purin-9-yl)-3,4-dihydroxytetrahydro-furan-2-yl]methyl}thio)acetate]
5	3	N#Cc1cccnc1SC[C@H]1O[C@@H](n2cnc3c(N)ncnc32)[C@H](O)[C@@H]1O [2(G)(89), 2-({[(2S, 3S, 4R, 5R)-5-(6-amino-9H-purin-9-yl)-3,4-dihydroxytetrahydro-furan-2-yl]methyl}thio)nicotinonitrile]
